In the METLIN SMRT retention time set (Domingo-Almenara et al. 2019):

Assay: gradient 5% acetonitrile 3 min, to 50% in 2 min, to 85% in 15 min, held 3 min, 100 µL/min
Conditions: column: Zorbax Extend-C18 2.1 x 50 mm; eluents: water / acetonitrile, 0.1% formic acid
How it was run: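 Standards, all pure, were combined into mixtures of ~100 molecules and run at 100 μL/min on a Zorbax Extend-C18 column (2.1 × 50 mm, 1.8 μm) with water and acetonitrile, each containing 0.1% formic acid. A coupled quadrupole time-of-flight mass spectrometer operated in positive and negative ionization mode. Retention time values come from computationally picked adduct peaks, each inspected manually.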

Row | SMILES | RP-LC retention time
1 | CC(C)c1ccc(OCC(=O)Nc2nnc(C3CC(=O)N(c4ccccc4)C3)o2)cc1 (configuration not stated) | 728 s
2 | CCC(C)(C)NS(=O)(=O)c1cc(-c2nc(C)cs2)n(CC(=O)N2CCCC2)c1 | 967 s
3 | O=C(CN1CCN(Cc2ccc(F)cc2)C1=O)NCc1cc(F)ccc1F | 806 s
4 | C=C(C)C(=O)Nc1ccc(NC(C)C)cc1 | 629 s
5 | Cc1oc(-c2ccccc2)nc1CN1C(=O)C(O)(c2cccc(F)c2)c2ccccc21 (configuration not stated) | 1100 s
6 | CCC(C)NC(=O)c1cnn(-c2cc(-c3nc(C4CC4)no3)ccn2)c1C (configuration not stated) | 973 s
7 | O=C(Nc1ccc(F)c(Cl)c1)N1CCC(N2CCN(Cc3cccc(F)c3)C(=O)C2=O)CC1 | 798 s
8 | CC1(C)CC(=O)c2cn(-c3ccc(F)cc3)c(=O)c(C(=O)N3CCCC3)c2C1 | 729 s
9 | Cc1ccc2c(c1)OCC(=O)N2Cc1nc(-c2ccccc2)no1 | 1040 s
10 | CCN(CC)C(=O)c1sc2ncn(CC(=O)N3CCCCC3C)c(=O)c2c1C (configuration not stated) | 752 s
11 | CCOC(=O)c1[nH]c(C)c(CCC(=O)N2CCC(C(=O)NCc3ccc4c(c3)OCO4)CC2)c1C | 764 s
12 | CCOc1ccc2cccc(NC(=O)Cc3cccs3)c2n1 | 1130 s
13 | CCOC(=O)c1c(S(=O)(=O)N2CCC(C(=O)Nc3ccc(C)c(C)c3)CC2)c(C)n(CC)c1C | 975 s
14 | Cn1nc(CN(C(=O)c2ccc(F)cc2)c2ccccc2)c2c1CCN(S(C)(=O)=O)C2 | 721 s
15 | CCOC(=O)N1CCN(S(=O)(=O)CCNC(=O)c2ccccc2)CC1 | 669 s
16 | O=c1c2sccc2n(Cc2nc(-c3ccc(Br)cc3)no2)c(=O)n1Cc1ccccc1 | 1200 s
17 | CC(=O)N1c2ccc(S(=O)(=O)N3CCCCC3)cc2CC1C(=O)N(C)Cc1ccccc1 (configuration not stated) | 864 s
18 | Cc1noc(C2CN(C(=O)CCC3CCCC3)CC23CCOCC3)n1 (configuration not stated) | 814 s
19 | Cc1cc(C)cc(Nc2c(-c3cc(Br)ccc3O)nc3ncccn23)c1 | 1140 s
20 | O=C(NCCN1CCOCC1)c1ccc2c(c1)CCCN2S(=O)(=O)c1ccc(Cl)cc1 | 689 s
21 | Cc1cc2nn(CC(=O)Nc3ccc(Br)cc3F)c(=O)n2c(-c2ccc(F)cc2)n1 | 952 s
22 | COc1ccc(-c2nnc3sc(COc4ccc(Br)cc4)nn23)cc1 | 1060 s

Row | SMILES | RP-LC retention time
23 | COc1ccc(S(=O)(=O)Nc2cccc(-c3cn4ccccc4n3)c2)cc1 | 645 s
24 | O=C(Nc1cc(F)ccc1F)C1CCCN(c2ncnc3c2nc2n3CCCCC2)C1 (configuration not stated) | 774 s
25 | COCCNC(=O)c1nnc(-c2ccc(S(=O)(=O)N(C)C)cc2)o1 | 687 s
26 | CCOc1ccccc1NC(=O)Cn1cnc2c(sc3nc(-c4ccccc4)ccc32)c1=O | 1110 s
27 | COc1ccccc1Oc1ccc(S(=O)(=O)N2CCCC2)cc1 | 914 s
28 | CCNc1cc(N2CCCC(CCC(=O)NCc3cccc(F)c3)C2)ncn1 (configuration not stated) | 585 s
29 | COc1ccc(NC(=O)C2(C)CCCCC(=O)N2)cc1F (configuration not stated) | 690 s
30 | CCC(=O)Nc1c(C)noc1/C=C\c1ccc(S(=O)(=O)Nc2ccc(S(N)(=O)=O)cc2)cc1 | 695 s
31 | O=C(CCNc1cnc2cnccn12)NCc1cccc(Cl)c1 | 590 s
32 | CC(C)c1ccc(-n2nc(N3CCN(C(=O)Cn4ccnc4)CC3)ccc2=O)cc1 | 731 s
33 | Cc1ccc(C(=O)N2CCCC2c2nc(-c3ccc(F)cc3F)no2)s1 (configuration not stated) | 1010 s
34 | CC(C)S(=O)(=O)c1ccc(Cc2nnc(NC(=O)C3=COCCO3)o2)cc1 | 616 s
35 | Cc1ccccc1-n1c(=O)c2sccc2n(Cc2nc(-c3ccc(Cl)c(F)c3)no2)c1=O | 1120 s
36 | O=C1CN(C(=O)Cc2ccc(Cl)cc2)C2(CCCC2)CN1 | 761 s
37 | Cn1ncc(N2CCC(C(=O)Nc3ccccc3)C2)cc1=O (configuration not stated) | 648 s
38 | O=C(CCc1c(-c2ccc(F)cc2)nc2ccccn12)NCc1cccc(Br)c1 | 677 s
39 | Cc1ccn2c(NC(=O)c3cccc(C(F)(F)F)c3)c(-c3ccc(F)cc3)nc2c1 | 752 s
40 | Cc1ccsc1C(=O)N1CCC2(CC1)NC(=O)N(Cc1ccccc1)C2=O | 768 s
41 | Brc1ccc(OCc2nnc3sc(-c4cccnc4)nn23)cc1 | 831 s
42 | COc1ccc(C(=O)Nc2c(-c3ccc(F)cc3)nc3cc(C)ccn23)cc1OC | 647 s
43 | O=C(CCC[C@@H]1[C@H]2CCCN3CCC[C@@H](CN1C(=O)c1cccnc1)[C@@H]23)N1CCN(c2ncccn2)CC1 | 578 s
44 | Cc1oc2ncnc(N3CCCC(C(=O)N4CCN(C5CCCCC5)CC4)C3)c2c1C (configuration not stated) | 1230 s

Row | SMILES | RP-LC retention time
45 | O=C(Cn1c(C(F)(F)F)nc2cc3c(cc21)OCCO3)Nc1ccccc1 | 867 s
46 | Cc1csc(-c2cc(S(=O)(=O)NCCN3CCC(C)CC3)cn2CC(=O)N2CCCCC2)n1 | 679 s
47 | O=S(=O)(Cc1ccccc1)N1CCC(c2noc(-c3cccnc3)n2)C1 (configuration not stated) | 822 s
48 | O=S(=O)(Cc1ccccc1)N1CCC(c2noc(-c3ccncc3)n2)C1 (configuration not stated) | 812 s
49 | COc1ccc(NC(=O)Cn2c(C(C)C)nc3c(c2=O)CCN(Cc2ccccc2)C3)c(OC)c1 | 703 s
50 | CCc1cc(=O)n(CC(=O)NCc2ccc(F)cc2F)c(N2CCOCC2)n1 | 720 s
51 | COc1ccc(C(=O)Nc2cccn3cnnc23)cc1F | 676 s
52 | COc1ccc(CCS(=O)(=O)N(Cc2ccsc2)C2CC2)cc1 | 1000 s
53 | COc1ccc(C(=O)Nc2nc(C)c3cc4c(cc3n2)OCO4)cc1 | 692 s
54 | CC(C)n1c(=O)c(Nc2cccc(C(F)(F)F)c2)nc2ccncc21 | 772 s
55 | Nc1cc(C2CCN(C(=O)c3ccc(F)c(F)c3)CC2)no1 | 680 s
56 | CCc1nc(-c2csc(S(=O)(=O)N3CCCC(C(=O)Nc4ccc(C)c(C)c4)C3)c2)no1 (configuration not stated) | 1110 s
57 | CS(=O)(=O)N1CCCc2cc(C(=O)N3CCC(C(N)=O)CC3)ccc21 | 604 s
58 | CCN1C(=O)COc2ccc(-c3csc(NC(=O)c4cccs4)n3)cc21 | 940 s
59 | O=C(NCCC1CCN(C(=O)Nc2cc(F)ccc2F)CC1)c1ccsc1 | 737 s
60 | COc1ccc(OC)c(-c2csc(-c3nnn(-c4ccc(F)cc4)c3N)n2)c1 | 1090 s
61 | CCCc1noc(-c2cccnc2N2CCCN(Cc3ccc(Cl)cc3)CC2)n1 | 754 s
62 | Cc1cccc(N2CCN(c3ccc4nnc(CCc5nc(-c6ccc(F)cc6)no5)n4n3)CC2)c1 | 1130 s
63 | CN1CCN(C(=O)C(=O)Nc2c3c(nn2-c2cccc(Cl)c2)CSC3)CC1 | 571 s
64 | Cc1c(C#N)c2ccccc2n1CC(=O)NC(C)c1ccc2c(c1)OCCCO2 (configuration not stated) | 892 s
65 | COc1ccc(OCc2nc(-c3ccc(-c4csc(C5CC5)n4)cc3)no2)cc1 | 1300 s
66 | O=C(C1=NN(Cc2cccc(Cl)c2)c2ccccc2S1(=O)=O)N1CCOCC1 | 856 s

Row | SMILES | RP-LC retention time
67 | COc1ccc2c(c1)c(CC(=O)OCC(=O)O)c(C)n2C(=O)c1ccc(Cl)cc1 | 958 s
68 | CCOC(=O)C1=C(CN2CCN(Cc3ccc4c(c3)OCO4)CC2)NC(=O)NC1c1ccc(F)cc1 (configuration not stated) | 675 s
69 | O=C(c1cn2nc(Cl)ccc2n1)N1CCN(c2ccc(F)cc2)CC1 | 826 s
70 | O=C(Nc1ccc(Cl)cc1)N1CCc2[nH]cnc2C1c1ccncc1 (configuration not stated) | 565 s
71 | CCCNC(=O)c1ncn2c1C(=O)N(C1CC1)C(C)(C(=O)NCc1ccccc1Cl)C2 (configuration not stated) | 722 s
72 | C=CCn1nc(-c2nc(-c3cccc(Cl)c3)no2)ccc1=O | 1060 s
73 | Cc1ccc2c(Nc3ccc(C)c(F)c3)c(-c3nc(C)no3)cnc2n1 | 807 s
74 | COc1cccc(C2=NC3(CCN(C(C)C)CC3)NC(c3cc(Br)ccc3O)C2)c1 (configuration not stated) | 647 s
75 | N#Cc1ccc(CN2CCC(F)(F)C(COCc3cccnc3)C2)cc1 (configuration not stated) | 575 s
76 | Cn1nc(C(=O)N2CCCCC2)c2c1CCN(C(=O)CCC(=O)NCCN1CCCCCC1)C2 | 590 s
77 | Cc1ccc(CN2CC(n3c(C)cnc3-c3ccccc3)C2)s1 | 555 s
78 | CCOC(=O)C1CCN(C(=O)COc2ccc(NC(=O)C3CC3)cn2)CC1 | 682 s
79 | COCCCNC(=O)C(C)n1c(=O)c(C(F)(F)F)nc2cc(C)c(C)cc21 (configuration not stated) | 1010 s
80 | Cc1cc(C)c(NC(=O)Cn2nc(N3CCC(C)CC3)c3ccccc3c2=O)c(C)c1 | 1300 s
81 | Cc1nn(-c2ccccc2)c2c1N(CC(=O)N1CCN(c3ccccc3)CC1)C(=O)CS2 | 839 s
82 | O=C(c1ccc(CS(=O)c2ccccc2)o1)N1CCN(c2ccccn2)CC1 (configuration not stated) | 560 s
83 | Cc1ccc2cc(CN3C[C@@H](CO)[C@H](c4ccccn4)C3)c(=O)[nH]c2c1 | 585 s
84 | CCc1nn2c(=O)cc(CSc3nnc(-c4cccc(C)c4)o3)nc2s1 | 800 s
85 | CCN1C(=O)C(CC(=O)NC(C)C)Sc2ncccc21 (configuration not stated) | 655 s
86 | CCC(=O)N(C1CCOCC1)C1CCN(Cc2cn(C)c3ccccc23)CC1 | 638 s
87 | CCC(NC(=O)C1CCN(c2nnc(-c3ccc(OC)cc3)o2)CC1)c1cccs1 (configuration not stated) | 863 s
